The results in this text go back to patent publication US10219516B2, “Molecules having pesticidal utility, and intermediates, compositions, and processes, related thereto” (priority 2015, dated 2019).

What all share (assay type): in vivo
Assay [1] relates to Beet Armyworm (Spodoptera exigua, LAPHEG). Briefly: Bioassay on Beet Armyworm (BAW), 128-well diet tray assay. Put shortly: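 In a 128-well format, eight wells per compound received a surface dose of 50 μg/cm^2 on artificial diet. After drying, each well got one to five second instar larvae, held at 25° C. with 14:10 photoperiod. Mortality percentages after five to seven days were averaged.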

In assay [2] the test system is Yellow Fever Mosquito (Aedes aegypti, AEDSAE). Briefly: Bioassay on Yellow Fever Mosquito (YFM), 96-well plate larval assay. The conditions noted are these: for YFM rating: Yellow Fever Mosquito, 96-well plate larval assay; for YFM (Biological Results, rating): Species YFM (Yellow Fever Mosquito). Put shortly:
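Aedes aegypti larvae (about 1 day old) in liver-powder water were added to plates dispensed from DMSO master plates (4000 ppm stock) diluted with 90:10 water/acetone; six replicate plates per master. Lidded plates were held at room temperature for 3 days, then each well was scored for mortality.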

For assay [3], the system named is Cabbage Looper (Trichoplusia ni, TRIPNI). Briefly: Bioassay on Cabbage Looper (CL), 128-well diet tray assay. To be noted: Trichoplusia ni. Summed up: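 Mortality of second instar larvae exposed to diet coated with 50 μg/cm^2 compound (acetone-water 90:10 vehicle, dried); 25° C., 5–7 days.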
Where [4] appears, read: Beet Armyworm, 128-well diet tray assay, read-out: BAW rating.
Where [5] appears, read: Cabbage Looper, 128-well diet tray assay, read-out: CL rating.
The mark [6] stands for this setting: Species BAW (Beet Armyworm), read-out: BAW (Biological Results, rating).
Setting [7] is: Species CL (Cabbage Looper), read-out: CL (Biological Results, rating).

Where two headings read alike, the source gives them in different places.

`C=Cc1ccc(NC(=O)c2cc(NC(=O)[C@H]3[C@H](c4cc(Cl)cc(Cl)c4)C3(Cl)Cl)ccc2Cl)nc1F` (relative stereo) [F397, 2-Chloro-5-(trans-2,2-dichloro-3-(3,5-dichlorophenyl)cyclopropane-1-carboxamido)-N-(6-fluoro-5-vinylpyridin-2-yl)benzamide]: the pest or weed control at 50 µg/cm2 in assay [1] (setting [4]) and in assay [3] (setting [5]) was 50 to 100% each time. The YFM rating entry in assay [2] was “A (80-100)”.
On to `Nc1cc(NC(=O)c2cc(NC(=O)[C@H]3[C@H](c4cc(Cl)cc(Cl)c4)C3(Cl)Cl)ccc2Cl)c(F)cc1F` [F353, N-(5-Amino-2,4-difluorophenyl)-2-chloro-5-((1R,3R)-2,2-dichloro-3-(3,5-dichlorophenyl)cyclopropane-1-carboxamido)benzamide], for which the pest or weed control at 50 µg/cm2 in assay [1] (setting [6]) and in assay [3] (setting [7]) was 50 to 100% in each case. Moreover, in assay [2], the “YFM (Biological Results, rating)” value was “A (80-100)”.
With `CN(C(=O)c1cc(NC(=O)[C@H]2[C@H](c3cc(Cl)c(Cl)c(Cl)c3)C2(Cl)Cl)ccc1Cl)c1ccc(F)cc1C#N` (relative stereo) [F244, trans-2-Chloro-N-(2-cyano-4-fluorophenyl)-5-(2,2-dichloro-3-(3,4,5-trichlorophenyl)cyclopropane-1-carboxamido)-N-methylbenzamide], the pest or weed control at 50 µg/cm2 in assay [1] (setting [6]) and in assay [3] (setting [7]) was 50 to 100% each time. For the same molecule, the “YFM (Biological Results, rating)” value in assay [2] is on record as “A (80-100)”.
With `O=C(Nc1ccc(F)cc1)c1cc(NC(=O)[C@H]2[C@H](c3cc(F)c(Br)c(F)c3)C2(Cl)Cl)ccc1Cl` (relative stereo) [F538, 5-(trans-3-(4-bromo-3,5-difluorophenyl)-2,2-dichlorocyclopropane-1-carboxamido)-2-chloro-N-(4-fluorophenyl)benzamide], the pest or weed control at 50 µg/cm2 in assay [1] (setting [4]) and in assay [3] (setting [5]) was 50 to 100% in each case. Also, in assay [2], the YFM rating entry is reported as “A (80-100)”.
For the molecule `Cc1nc2cc(NC(=O)c3cc(NC(=O)C4C(c5cc(Cl)cc(Cl)c5)C4(Cl)Cl)ccc3Cl)ccc2s1` (stereo not drawn) [F455, 2-Chloro-5-(trans)-2,2-dichloro-3-(3,5-dichlorophenyl)cyclopropane-1-carboxamido)-N-(2-methylbenzo[d]thiazol-5-yl)benzamide], the pest or weed control at 50 µg/cm2 in assay [1] (setting [4]) and in assay [3] (setting [5]) was 50 to 100% throughout. Besides, the YFM rating entry in assay [2] was “A (80-100)”.
As to `CN(C(=O)c1cc(NC(=O)[C@H]2[C@H](c3ccc(C(F)(F)F)cc3)C2(Cl)Cl)ccc1Cl)c1ccc(F)cc1` (relative stereo) [F82, trans-2-Chloro-5-(2,2-dichloro-3-(4-(trifluoromethyl)phenyl)cyclopropane-1-carboxamido)-N-(4-fluorophenyl)-N-methylbenzamide], the pest or weed control at 50 µg/cm2 in assay [1] (setting [6]) and in assay [3] (setting [7]) was 50 to 100% each time. In assay [2], the “YFM (Biological Results, rating)” value is “B (More than 0-Less than 80)”.
Turning to `O=C(Nc1ccc(-n2ccnn2)cc1)c1cc(NC(=O)[C@H]2[C@H](c3cc(Cl)cc(Cl)c3)C2(Cl)Cl)ccc1Cl` (relative stereo) [F217, trans-N-(4-(1H-1,2,3-Triazol-1-yl)phenyl)-2-chloro-5-(2,2-dichloro-3-(3,5-dichlorophenyl)cyclopropane-1-carboxamido)benzamide], the pest or weed control at 50 µg/cm2 in assay [1] (setting [6]) and in assay [3] (setting [7]) was 50 to 100% in each case. In addition, in assay [2], the “YFM (Biological Results, rating)” value is “B (More than 0-Less than 80)”.
`COc1cc(NC(=O)c2cc(NC(=O)[C@H]3[C@H](c4ccc(F)c(Cl)c4)C3(Cl)Cl)ccc2Cl)ccn1` (relative stereo) [F545, 2-Chloro-5-(trans-2,2-dichloro-3-(3-chloro-4-fluorophenyl)cyclopropane-1-carboxamido)-N-(2-methoxypyridin-4-yl)benzamide]: the pest or weed control at 50 µg/cm2 in assay [1] (setting [4]) and in assay [3] (setting [5]) was 50 to 100% each time. The YFM rating result in assay [2] is listed as “A (80-100)”.
In the case of `O=C(Nc1ccc(F)cc1F)c1cc(NC(=O)[C@@H]2[C@@H](c3ccc(F)c(Cl)c3)C2(Cl)Cl)ccc1Cl` [F534, 2-Chloro-5-((1S,3S)-2,2-dichloro-3-(3-chloro-4-fluorophenyl)cyclopropane-1-carboxamido)-N-(2,4-difluorophenyl)benzamide], the pest or weed control at 50 µg/cm2 in assay [1] (setting [4]) and in assay [3] (setting [5]) was 50 to 100% in each case. In assay [2], the YFM rating result is recorded as “A (80-100)”.
Take `O=C(Nc1ccc(Cl)c(Cl)c1)c1cc(NC(=O)C2C(c3cc(Cl)cc(Cl)c3)C2(Cl)Cl)ccc1Cl` (stereo not drawn) [PF117, 2-Chloro-5-(trans)-2,2-dichloro-3-(3,5-dichlorophenyl)cyclopropane-1-carboxamido)-N-(3,4-dichlorophenyl)benzamide]: the pest or weed control at 50 µg/cm2 in assay [1] (setting [4]) and in assay [3] (setting [5]) was 50 to 100% throughout. Besides, in assay [2], the YFM rating result is given as “A (80-100)”.
For `O=C(Nc1ccc(F)cc1F)c1cc(NC(=O)[C@H]2[C@H](c3ccc(C(F)(F)F)c(Br)c3)C2(Cl)Cl)ccc1Cl` (relative stereo) [F365, 5-(trans)-(3-(3-Bromo-4-(trifluoromethyl)phenyl)-2,2-dichlorocyclopropane-1-carboxamido)-2-chloro-N-(2,4-difluorophenyl)benzamide], the pest or weed control at 50 µg/cm2 in assay [1] (setting [6]) and in assay [3] (setting [7]) was 50 to 100% throughout. Moreover, in assay [2], the “YFM (Biological Results, rating)” value is “A (80-100)”.
On to `O=C(NC1CCc2ncccc2C1)c1cc(NC(=O)C2C(c3cc(Cl)cc(Cl)c3)C2(Cl)Cl)ccc1Cl` (stereo not drawn) [F567, 2-Chloro-5-trans-(2,2-dichloro-3-(3,5-dichlorophenyl)cyclopropane-1-carboxamido)-N-(5,6,7,8-tetrahydroquinolin-6-yl)benzamide], for which the pest or weed control at 50 µg/cm2 in assay [1] (setting [4]) and in assay [3] (setting [5]) was 50 to 100% in each case. The YFM rating result in assay [2] is on record as “A (80-100)”.
As for `Cc1cc(NC(=O)OC(C)(C)C)ccc1NC(=O)c1cc(NC(=O)[C@H]2[C@H](c3ccc(Cl)c(Cl)c3)C2(Cl)Cl)ccc1Cl` [F277, tert-Butyl (4-(2-chloro-5-((1R,3R)-2,2-dichloro-3-(3,4-dichlorophenyl)cyclopropane-1-carboxamido)benzamido)-3-methylphenyl)carbamate], the pest or weed control at 50 µg/cm2 in assay [1] (setting [6]) and in assay [3] (setting [7]) was 50 to 100% each time. Besides, the “YFM (Biological Results, rating)” value in assay [2] was “A (80-100)”.
In the case of `O=C(Nc1ccc([S+]([O-])CC(F)(F)F)cc1)c1cc(NC(=O)[C@H]2[C@H](c3cc(Cl)cc(Cl)c3)C2(Cl)Cl)ccc1Cl` (relative stereo) [PF18, trans-2-Chloro-5-(2,2-dichloro-3-(3,5-dichlorophenyl)cyclopropane-1-carboxamido)-N-(4-((2,2,2-trifluoroethyl)sulfinyl)phenyl)benzamide], the pest or weed control at 50 µg/cm2 in assay [1] (setting [4]) and in assay [3] (setting [5]) was 50 to 100% each time. Besides, in assay [2], the YFM rating result was “B (More than 0-Less than 80)”.
In the case of `O=C(Nc1ccc(F)cc1)c1cc(NC(=O)[C@H]2[C@H](c3ccc(Br)c(Cl)c3)C2(Cl)Cl)ccc1Cl` (relative stereo) [F270, 5-(trans-3-(4-Bromo-3-chlorophenyl)-2,2-dichlorocyclopropane-1-carboxamido)-2-chloro-N-(4-fluorophenyl)benzamide], the pest or weed control at 50 µg/cm2 in assay [1] (setting [6]) and in assay [3] (setting [7]) was 50 to 100% in each case. The “YFM (Biological Results, rating)” value in assay [2] is listed as “A (80-100)”.
Consider `COc1c(F)cc(C2C(C(=O)Nc3ccc(Cl)c(C(=O)Nc4ccc(F)cc4F)c3)C2(Cl)Cl)cc1F` (stereo not drawn) [F537, 2-Chloro-5-trans-(2,2-dichloro-3-(3,5-difluoro-4-methoxyphenyl)cyclopropane-1-carboxamido)-N-(2,4-difluorophenyl)benzamide], for which the pest or weed control at 50 µg/cm2 in assay [1] (setting [4]) and in assay [3] (setting [5]) was 50 to 100% each time. In addition, in assay [2], the YFM rating entry is “A (80-100)”.
For `O=C(Nc1ccc(F)cc1F)c1cc(NC(=O)[C@H]2[C@H](c3ccc(F)c(C(F)(F)F)c3)C2(Cl)Cl)ccc1Cl` (relative stereo) [F376, 2-Chloro-5-(trans)-(2,2-dichloro-3-(4-fluoro-3-(trifluoromethyl)phenyl)cyclopropane-1-carboxamido)-N-(2,4-difluorophenyl)benzamide], the pest or weed control at 50 µg/cm2 in assay [1] (setting [4]) and in assay [3] (setting [5]) was 50 to 100% each time. In addition, the YFM rating result in assay [2] is on record as “A (80-100)”.
With `O=C(Nc1cc(F)c(F)c(Br)c1)c1cc(NC(=O)[C@H]2[C@H](c3cc(Cl)cc(Cl)c3)C2(Cl)Cl)ccc1Cl` [F583, N-(3-Bromo-4,5-difluorophenyl)-2-chloro-5-((1R,3R)-2,2-dichloro-3-(3,5-dichlorophenyl)cyclopropane-1-carboxamido)benzamide], the pest or weed control at 50 µg/cm2 in assay [1] (setting [4]) and in assay [3] (setting [5]) was 50 to 100% each time. Besides, the YFM rating result in assay [2] was “A (80-100)”.
With `Cc1cc(F)ccc1NC(=O)c1cc(NC(=O)[C@H]2[C@H](c3ccc(Cl)c(Cl)c3)C2(Cl)Cl)ccc1Cl` (relative stereo) [PF46, trans-2-Chloro-5-(2,2-dichloro-3-(3,4-dichlorophenyl)cyclopropane-1-carboxamido)-N-(4-fluoro-2-methylphenyl)benzamide], the pest or weed control at 50 µg/cm2 in assay [1] (setting [4]) and in assay [3] (setting [5]) was 50 to 100% in each case. In addition, in assay [2], the YFM rating entry was “A (80-100)”.
